“And” between values parts separate entries of the source, which are not always exact repeats. Equal entries are not always repeated.
Key:
Assay in all cases: radiometric filter-binding kinase assay, Kinase HotSpot
Details in all cases: compound 0.5 µM; ATP 10 µM
ABL2 (human) = ABL2 (human) (UniProt P42684)
AURKA (human) = AURKA (human) (UniProt O14965)
AURKB (human) = AURKB (human) (UniProt Q96GD4)
BLK (human) = BLK (human) (UniProt P51451)
BMX (human) = BMX (human) (UniProt P51813)
BRSK1 (human) = BRSK1 (human) (UniProt Q8TDC3)
CAMK2G (human) = CAMK2G (human) (UniProt Q13555)
CAMK4 (human) = CAMK4 (human) (UniProt Q16566)
CDK1 CCNA2 (human) = CDK1 CCNA2 (human) (UniProt P06493+P20248)
CHEK2 (human) = CHEK2 (human) (UniProt O96017)
DAPK3 (human) = DAPK3 (human) (UniProt O43293)
DSTYK (human) = DSTYK (human) (UniProt Q6XUX3)
DYRK3 (human) = DYRK3 (human) (UniProt O43781)
EPHA2 (human) = EPHA2 (human) (UniProt P29317)
EPHA3 (human) = EPHA3 (human) (UniProt P29320)
EPHA4 (human) = EPHA4 (human) (UniProt P54764)
EPHB2 (human) = EPHB2 (human) (UniProt P29323)
FGFR3 (human) = FGFR3 (human) (UniProt P22607)
FLT3 (human) = FLT3 (human) (UniProt P36888)
FYN (human) = FYN (human) (UniProt P06241)
GSG2 (human) = GSG2 (human) (UniProt Q8TF76)
IRAK1 (human) = IRAK1 (human) (UniProt P51617)
LTK (human) = LTK (human) (UniProt P29376)
MAP2K1 (human) = MAP2K1 (human) (UniProt Q02750)
MAP3K14 (human) = MAP3K14 (human) (UniProt Q99558)
MAPK11 (human) = MAPK11 (human) (UniProt Q15759)
MARK2 (human) = MARK2 (human) (UniProt Q7KZI7)
MINK1 (human) = MINK1 (human) (UniProt Q8N4C8)
MLTK (human) = MLTK (human) (UniProt Q9NYL2)
MST4 (human) = MST4 (human) (UniProt Q9P289)
PAK1 (human) = PAK1 (human) (UniProt Q13153)
PAK3 (human) = PAK3 (human) (UniProt O75914)
PDGFRA (human) = PDGFRA (human) (UniProt P16234)
PDGFRB (human) = PDGFRB (human) (UniProt P09619)
PNCK (human) = PNCK (human) (UniProt Q6P2M8)
PRKCE (human) = PRKCE (human) (UniProt Q02156)
PRKG1 (human) = PRKG1 (human) (UniProt Q13976)
PRKX (human) = PRKX (human) (UniProt P51817)
ROCK2 (human) = ROCK2 (human) (UniProt O75116)
RPS6KB2 (human) = RPS6KB2 (human) (UniProt Q9UBS0)
TEK (human) = TEK (human) (UniProt Q02763)
TXK (human) = TXK (human) (UniProt P42681)
Sequence of TXK (human) (P42681 whole entry, looked up): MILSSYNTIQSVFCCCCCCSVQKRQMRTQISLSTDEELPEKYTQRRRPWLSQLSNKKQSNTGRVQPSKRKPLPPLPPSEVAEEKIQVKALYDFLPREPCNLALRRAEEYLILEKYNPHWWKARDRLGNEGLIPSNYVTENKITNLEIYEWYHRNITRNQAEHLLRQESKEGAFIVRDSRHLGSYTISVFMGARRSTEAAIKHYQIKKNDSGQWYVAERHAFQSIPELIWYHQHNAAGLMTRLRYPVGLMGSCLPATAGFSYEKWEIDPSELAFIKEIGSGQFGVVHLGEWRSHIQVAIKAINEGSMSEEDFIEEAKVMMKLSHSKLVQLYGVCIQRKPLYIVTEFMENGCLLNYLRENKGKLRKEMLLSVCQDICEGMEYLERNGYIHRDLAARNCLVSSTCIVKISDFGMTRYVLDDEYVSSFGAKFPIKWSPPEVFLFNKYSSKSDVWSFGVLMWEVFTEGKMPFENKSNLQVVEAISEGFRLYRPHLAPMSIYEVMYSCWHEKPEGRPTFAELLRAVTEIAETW

Sequence of PRKG1 (human) (Q13976 whole entry, looked up): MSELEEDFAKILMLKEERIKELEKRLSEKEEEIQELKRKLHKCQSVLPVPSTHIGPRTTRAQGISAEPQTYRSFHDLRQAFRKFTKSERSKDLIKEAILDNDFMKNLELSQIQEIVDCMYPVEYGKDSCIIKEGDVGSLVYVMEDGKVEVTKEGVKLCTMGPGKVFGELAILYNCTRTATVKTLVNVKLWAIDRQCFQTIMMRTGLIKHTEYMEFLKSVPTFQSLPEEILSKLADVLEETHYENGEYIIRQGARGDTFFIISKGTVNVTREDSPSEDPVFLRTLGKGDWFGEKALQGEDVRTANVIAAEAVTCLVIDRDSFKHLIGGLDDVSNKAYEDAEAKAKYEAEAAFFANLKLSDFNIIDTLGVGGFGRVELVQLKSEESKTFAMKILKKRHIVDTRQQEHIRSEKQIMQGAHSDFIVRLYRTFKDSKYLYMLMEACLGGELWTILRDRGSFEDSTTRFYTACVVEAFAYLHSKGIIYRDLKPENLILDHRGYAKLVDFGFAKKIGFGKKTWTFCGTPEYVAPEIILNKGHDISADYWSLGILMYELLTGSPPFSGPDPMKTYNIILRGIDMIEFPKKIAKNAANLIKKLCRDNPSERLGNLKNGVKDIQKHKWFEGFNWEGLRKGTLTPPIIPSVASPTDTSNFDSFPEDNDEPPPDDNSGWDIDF
Sequence of MAPK11 (human) (Q15759 whole entry, looked up): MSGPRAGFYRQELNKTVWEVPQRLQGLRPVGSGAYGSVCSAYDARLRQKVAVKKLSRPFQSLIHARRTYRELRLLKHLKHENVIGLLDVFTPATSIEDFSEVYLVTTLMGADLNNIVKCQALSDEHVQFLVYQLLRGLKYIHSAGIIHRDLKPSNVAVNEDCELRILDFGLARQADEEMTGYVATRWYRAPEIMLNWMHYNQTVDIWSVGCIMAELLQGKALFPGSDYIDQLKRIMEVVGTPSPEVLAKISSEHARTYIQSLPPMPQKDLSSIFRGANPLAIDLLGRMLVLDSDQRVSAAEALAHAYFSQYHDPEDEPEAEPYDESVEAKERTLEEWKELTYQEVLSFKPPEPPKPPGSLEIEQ
Sequence of FYN (human) (P06241 whole entry, looked up): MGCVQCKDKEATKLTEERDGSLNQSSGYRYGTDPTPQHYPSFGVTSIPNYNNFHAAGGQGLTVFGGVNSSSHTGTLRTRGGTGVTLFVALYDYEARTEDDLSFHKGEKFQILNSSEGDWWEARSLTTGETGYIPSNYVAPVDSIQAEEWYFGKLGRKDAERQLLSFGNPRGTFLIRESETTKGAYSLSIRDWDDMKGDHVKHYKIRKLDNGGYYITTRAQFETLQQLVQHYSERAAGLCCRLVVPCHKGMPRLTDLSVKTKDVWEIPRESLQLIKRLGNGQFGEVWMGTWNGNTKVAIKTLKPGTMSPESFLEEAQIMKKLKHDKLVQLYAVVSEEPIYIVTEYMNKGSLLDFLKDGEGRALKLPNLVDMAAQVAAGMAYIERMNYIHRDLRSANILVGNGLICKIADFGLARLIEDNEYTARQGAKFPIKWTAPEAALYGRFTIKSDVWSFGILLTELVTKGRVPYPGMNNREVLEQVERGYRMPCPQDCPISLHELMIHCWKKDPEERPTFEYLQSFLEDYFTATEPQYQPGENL
Sequence of RPS6KB2 (human) (Q9UBS0 whole entry, looked up): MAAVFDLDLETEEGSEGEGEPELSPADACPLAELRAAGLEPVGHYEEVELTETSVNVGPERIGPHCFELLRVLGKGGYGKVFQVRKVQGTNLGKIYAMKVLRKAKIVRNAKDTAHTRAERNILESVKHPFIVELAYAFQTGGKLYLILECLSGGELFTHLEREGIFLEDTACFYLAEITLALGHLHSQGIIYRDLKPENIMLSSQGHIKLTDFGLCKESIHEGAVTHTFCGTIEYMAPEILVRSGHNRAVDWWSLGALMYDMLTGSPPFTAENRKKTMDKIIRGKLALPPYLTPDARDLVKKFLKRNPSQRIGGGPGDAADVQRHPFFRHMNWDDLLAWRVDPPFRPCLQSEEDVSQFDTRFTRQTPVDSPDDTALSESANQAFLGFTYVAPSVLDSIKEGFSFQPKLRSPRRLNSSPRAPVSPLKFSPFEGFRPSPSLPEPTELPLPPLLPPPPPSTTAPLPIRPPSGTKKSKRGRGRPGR
Sequence of MARK2 (human) (Q7KZI7 whole entry, looked up): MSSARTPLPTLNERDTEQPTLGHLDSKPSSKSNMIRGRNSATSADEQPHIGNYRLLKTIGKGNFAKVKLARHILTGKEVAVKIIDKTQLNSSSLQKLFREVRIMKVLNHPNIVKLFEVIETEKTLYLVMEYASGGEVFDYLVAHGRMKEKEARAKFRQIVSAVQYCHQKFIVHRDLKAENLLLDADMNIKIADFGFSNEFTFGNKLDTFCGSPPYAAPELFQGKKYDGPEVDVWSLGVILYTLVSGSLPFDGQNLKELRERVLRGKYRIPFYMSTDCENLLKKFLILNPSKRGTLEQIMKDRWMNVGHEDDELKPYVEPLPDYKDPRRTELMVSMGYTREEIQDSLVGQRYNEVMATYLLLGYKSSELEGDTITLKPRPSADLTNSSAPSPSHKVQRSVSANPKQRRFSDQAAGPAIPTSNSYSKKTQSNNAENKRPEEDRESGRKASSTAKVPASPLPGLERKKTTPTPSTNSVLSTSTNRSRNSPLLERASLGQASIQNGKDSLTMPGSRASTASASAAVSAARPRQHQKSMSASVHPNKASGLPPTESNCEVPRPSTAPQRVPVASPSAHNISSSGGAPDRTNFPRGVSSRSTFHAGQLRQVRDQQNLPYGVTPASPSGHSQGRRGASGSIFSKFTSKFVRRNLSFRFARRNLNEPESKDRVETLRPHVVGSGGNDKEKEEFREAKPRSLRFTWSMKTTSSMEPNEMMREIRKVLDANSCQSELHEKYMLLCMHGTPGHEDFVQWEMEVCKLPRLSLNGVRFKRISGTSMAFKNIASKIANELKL
Sequence of DYRK3 (human) (O43781 whole entry, looked up): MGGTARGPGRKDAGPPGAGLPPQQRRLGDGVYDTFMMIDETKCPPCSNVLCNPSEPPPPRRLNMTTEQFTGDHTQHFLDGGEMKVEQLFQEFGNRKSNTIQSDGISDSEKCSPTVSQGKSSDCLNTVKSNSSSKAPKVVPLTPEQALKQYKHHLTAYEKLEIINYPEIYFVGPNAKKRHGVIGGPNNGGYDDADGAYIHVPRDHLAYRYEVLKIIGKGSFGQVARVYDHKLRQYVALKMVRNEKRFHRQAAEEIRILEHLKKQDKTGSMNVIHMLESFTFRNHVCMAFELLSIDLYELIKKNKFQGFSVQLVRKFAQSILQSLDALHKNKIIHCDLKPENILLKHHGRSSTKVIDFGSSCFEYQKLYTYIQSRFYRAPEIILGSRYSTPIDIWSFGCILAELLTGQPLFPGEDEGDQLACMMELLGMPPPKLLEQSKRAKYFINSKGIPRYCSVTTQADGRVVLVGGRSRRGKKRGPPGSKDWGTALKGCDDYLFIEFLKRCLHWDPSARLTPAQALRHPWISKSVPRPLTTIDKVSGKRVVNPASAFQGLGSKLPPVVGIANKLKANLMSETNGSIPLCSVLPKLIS
Sequence of CAMK4 (human) (Q16566 whole entry, looked up): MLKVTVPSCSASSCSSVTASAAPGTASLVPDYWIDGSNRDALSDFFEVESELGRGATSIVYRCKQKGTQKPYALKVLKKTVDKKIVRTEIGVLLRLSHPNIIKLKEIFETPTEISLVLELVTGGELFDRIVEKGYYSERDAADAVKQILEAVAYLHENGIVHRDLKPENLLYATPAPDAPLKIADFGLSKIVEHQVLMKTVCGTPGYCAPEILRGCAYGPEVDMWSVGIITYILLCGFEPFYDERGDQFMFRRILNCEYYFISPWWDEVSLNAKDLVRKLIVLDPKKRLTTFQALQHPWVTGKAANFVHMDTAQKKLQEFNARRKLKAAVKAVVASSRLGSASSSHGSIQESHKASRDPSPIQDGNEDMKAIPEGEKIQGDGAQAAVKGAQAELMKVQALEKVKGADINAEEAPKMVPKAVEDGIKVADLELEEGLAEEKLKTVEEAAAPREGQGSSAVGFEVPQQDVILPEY
Sequence of BLK (human) (P51451 whole entry, looked up): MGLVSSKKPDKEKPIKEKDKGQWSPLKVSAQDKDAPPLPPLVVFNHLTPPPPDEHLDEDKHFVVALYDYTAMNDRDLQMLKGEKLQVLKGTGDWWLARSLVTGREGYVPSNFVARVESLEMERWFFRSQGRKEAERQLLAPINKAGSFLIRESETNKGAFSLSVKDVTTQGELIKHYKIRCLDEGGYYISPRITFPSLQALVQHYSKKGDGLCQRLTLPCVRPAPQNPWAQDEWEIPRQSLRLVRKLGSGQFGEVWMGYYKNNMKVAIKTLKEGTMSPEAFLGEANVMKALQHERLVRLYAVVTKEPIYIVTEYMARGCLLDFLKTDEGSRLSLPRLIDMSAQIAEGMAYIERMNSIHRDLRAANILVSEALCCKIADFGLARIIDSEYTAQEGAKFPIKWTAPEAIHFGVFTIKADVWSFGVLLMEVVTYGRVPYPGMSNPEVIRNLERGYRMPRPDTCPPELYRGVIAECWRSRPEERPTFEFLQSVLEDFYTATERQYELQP

O=C(O)c1ccc2c3c1cccc3c(=O)n1c3ccccc3nc21
residual activity (ABL2 (human)): 100% | residual activity (AURKA (human)): 78.6% | residual activity (AURKB (human)): 82.5% | residual activity (BLK (human)): 100% | residual activity (BMX (human)): 96.4% | residual activity (BRSK1 (human)): 89% | residual activity (CAMK2G (human)): 96.5% | residual activity (CAMK4 (human)): 101% | residual activity (CDK1 CCNA2 (human)): 78.1% | residual activity (CHEK2 (human)): 75.2% | residual activity (DAPK3 (human)): 51.3% | residual activity (DSTYK (human)): 103% | residual activity (DYRK3 (human)): 92.3% | residual activity (EPHA2 (human)): 102% | residual activity (EPHA3 (human)): 104% | residual activity (EPHA4 (human)): 103% | residual activity (EPHB2 (human)): 104% | residual activity (FGFR3 (human)): 92.9% | residual activity (FLT3 (human)): 68.9% | residual activity (FYN (human)): 94% | residual activity (GSG2 (human)): 90.9% | residual activity (IRAK1 (human)): 61.1% | residual activity (LTK (human)): 72.7% | residual activity (MAP2K1 (human)): 93.7% | residual activity (MAP3K14 (human)): 94.8% | residual activity (MAPK11 (human)): 105% | residual activity (MARK2 (human)): 87.7% | residual activity (MINK1 (human)): 79.8% | residual activity (MLTK (human)): 100% | residual activity (MST4 (human)): 97.8% | residual activity (PAK1 (human)): 95.6% | residual activity (PAK3 (human)): 97.6% | residual activity (PDGFRA (human)): 94.4% | residual activity (PDGFRB (human)): 107% | residual activity (PNCK (human)): 101% | residual activity (PRKCE (human)): 113% | residual activity (PRKG1 (human)): 94% and 95.1% | residual activity (PRKX (human)): 93.7% | residual activity (ROCK2 (human)): 99% | residual activity (RPS6KB2 (human)): 98% | residual activity (TEK (human)): 102% | residual activity (TXK (human)): 102%
